# System: Rat adult neural stem cell line ANSC-7 cells
# Experiment: Proliferation promoting activity on neural stem cells (Test Example 1)
# Assay type: cell-based
# Details: at 1.0 nmol/L, relative value, negative control (DMSO) = 100%, wells without cells = 0%, absorbance at 490 nm
# Protocol: Rat adult neural stem cell line ANSC-7 cells prepared by the method described in the following Reference Test Example 1 were suspended in assay medium at a density of 1.6×10^5 cells/mL; inoculated at 0.1 mL in a 96 well plate (manufactured by Costar) of which surface was coated with polyornithine and laminin; and cultured overnight at 37° C. under an atmosphere of 5% CO2. Thereafter, 50 μL of the culture supernatant was removed, and 50 μL of a test compound which was serially diluted with the assay medium to 2 times of the final concentration or DMSO (negative control) was added to each well. For the serial dilution of a test compound, non-specific adsorption was minimized by using ProteoSave 96 U plates (manufactured by SUMILON), siliconized 1.5 mL tubes (manufactured by Assist) and Pitarack siliconized tips (manufactured by Nacalai). After the culturing for 48 hours, 50 μL of the culture supernatant was replaced by 50 μL of the assay medium containing 0.1% bovine fetal serum. Furthermore, after the culturing for 48 hours, Living Cell Count Reagent SF (manufactured by Nacalai Tesque) was added at the volume of 10 μL per well to the medium. After the culturing for 3 hours at 37° C. in the incubator which was set at 5% CO2, the resulting solution was stirred for one minute and then the absorbance at 490 nm (control wavelength 655 nm) was measured by using Microplate Spectrophotometer Emax (manufactured by Molecular Devices). By regarding the measured value of well to which the cells were not inoculated as 0%, and the measured value of negative control as 100%, relative values in the test compound addition group were calculated.
# After putting a 7-week-old Sprague Dawley Rat to sleep by ether anesthesia and subsequent decapitation, the skull was cut open from the parietal region to extract the brain. Under a microscope, tissues including circumventricular region were isolated from the extracted brain by using ophthalmic scissors and tweezers. The tissues including circumventricular region were cut into fragments of about 1 mm^3 using ophthalmic scissors and scalpels and then subjected to 30 minutes of digestion reaction at 37° C. in 5 mL of Hanks' buffer (HBSS buffer, manufactured by Invitrogen) containing 2.5 U/mL of papain, 250 U/mL of DNase (all manufactured by Worthington, Freehold, N.J.) and 1 U/mL of a neutral protease (Dispase, manufactured by Boehringer-Mannheim Corp.). The mixture of cells and tissues obtained by the reaction was washed three times with DMEM (manufactured by Invitrogen) containing 10% fetal bovine serum (manufactured by Hyclone) and then dissolved in the DMEM containing 10% fetal bovine serum, followed by removing the undigested materials using a nylon mesh of […].
# The resulting crude cells extract was cultured overnight on a culture dish of 10 cm, in an incubator of 37° C. using DMEM/F12 medium (manufactured by Invitrogen) containing 10% fetal bovine serum. On the next day, the medium was replaced with DMEM/F12 containing 1% of N-2 additives (manufactured by Invitrogen) and 20 ng/mL of FGF 2 (manufactured by Pepro Tech) and the culturing was started. Once in 3 days, half of the medium was replaced with new DMEM/F12 containing 1% of N-2 additives and 20 ng/mL of FGF 2 and the culturing was continued.
# When a small colony consisting of small cells was formed, it was treated with 1% trypsin for 30 seconds to 1 minute, and the cells detached were harvested. The harvested cells were inoculated on a multiple well culture dish (manufactured by Fisher Scientific) which had been coated at room temperature overnight using 10 μg/mL of polyornithine (manufactured by Sigma) and at 37° C. overnight using 5 μg/mL of mouse EHS tumor-derived laminin (Becton Dickinson), and the culturing was continued.
# By continuing the above-mentioned culturing, small cells having small protrusion and thickness were concentrated. The cells were used as adult neural stem cells in the above-mentioned test (Test Example 1).
row,Compound,activity at 0.001 µM
1,"CC(C)CCC[C@@H](C)[C@H]1CC[C@H]2C3=C(CC[C@]12C)[C@@]1(C)C[C@@H](O)[C@H](O)C[C@@H]1C(=O)O3 [Compound 53, (2R,3R,5S)-2,3-Dihydroxy-7-oxa-8-cholesten-6-one]",≥ 125%
2,"CC(CO)CCC[C@H](C)[C@H]1CC[C@H]2C3=C(CC[C@]12C)[C@@]1(C)CC[C@H](O)C[C@@H]1C(=O)O3 (some centres unmarked) [Compound 79, 7-Oxa-cholest-8(9)-en-6-on-3,26-diol]",≥ 125%
3,"C=CCOC[C@@H](C)[C@H]1CC[C@H]2C3=C(CC[C@]12C)[C@@]1(C)CC[C@H](OCOC)C[C@@H]1C(=O)O3 [Compound 66, (1R,3aR,5aS,7S,9aS,11aR)-1-[(S)-1-Allyloxypropan-2-yl]-7-methoxymethoxy-9a,11a-dimethyl-1,2,3,3a,5a,6,7,8,9,9a,11,11a-dodecahydrobenzo[c]cyclopenta[h]chromen-5(10H)-one]",≥ 125%
4,"CC(C)CCC[C@@H](C)[C@H]1CC[C@H]2C3=C(CC[C@]12C)[C@@]1(C)C[C@@H](O)C(=O)C[C@@H]1C(=O)O3 [Compound 48, (2R,5S)-2-Hydroxy-7-oxa-8-cholesten-3,6-dione]",≥ 125%
5,"CC(C)CNC[C@@H](C)[C@H]1CC[C@H]2C3=C(CC[C@]12C)[C@@]1(C)CC[C@H](O)C[C@@H]1C(=O)O3 [Compound 83, (1R,3aR,5aS,7S,9aS,11aR)-7-Hydroxy-1-[(S)-1-isobutylaminopropan-2-yl]-9a,11a-dimethyl-1,2,3,3a,5a,6,7,8,9,9a,11,11a-dodecahydrobenzo[c]cyclopenta[h]chromen-5(10H)-one]",≥ 125%
6,"CC(C)CCC[C@@H](C)[C@H]1CCC2=C3OC(=O)[C@H]4C[C@@H](O)CC[C@]4(C)[C@H]3CC[C@@]21C [Compound 99, (1R,5aS,7S,9aR,9bR,11aR)-7-Hydroxy-9a,11a-dimethyl-1-[(R)-6-methylheptan-2-yl]-2,3,3,5a,6,7,8,9,9a,9b,10,11,11a-dodecahydrobenzo[c]cyclopenta[h]chromen-5(1H)-one]",≥ 125%
7,"CC(C)COC[C@@H](C)[C@H]1CC[C@H]2C3=C(CC[C@]12C)[C@@]1(C)CC[C@H](O)C[C@@H]1C(=O)O3 [Compound 81, (1R,3aR,5aS,7S,9aS,11aR)-7-Hydroxy-1-[(S)-1-isobutyloxypropan-2-yl]-9a,11a-dimethyl-1,2,3,3a,5a,6,7,8,9,9a,11,11a-dodecahydrobenzo[c]cyclopenta[h]chromen-5(10H)-one]",≥ 125%
8,"CC(C)CCC[C@@H](C)[C@H]1CC[C@H]2C3=C(CC[C@]12C)[C@@]1(C)CC[C@H](OCCO)C[C@@H]1C(=O)O3 [Compound 31, (3S,5S)-3-(2-Hydroxy)ethoxy-7-oxa-8-cholesten-6-one]",≥ 125%
9,"CC(C)CCC[C@@H](C)[C@H]1CC[C@H]2C3=C(CC[C@]12C)[C@]1(C)[C@H](C[C@@H](O)[C@H](O)[C@@H]1O)C(=O)O3 [Compound 32, (1R,2S,3R,5S)-1,2,3-trihydroxy-7-oxa-8-cholesten-6-one]",≥ 125%
10,"COCO[C@H]1CC[C@]2(C)C3=C(OC(=O)[C@H]2C1)[C@@H]1CC[C@H]([C@H](C)CNCC(C)C)[C@@]1(C)CC3 [Compound 69, (1R,3aR,5aS,7S,9aS,11aR)-1-[(S)-1-Isobutylaminopropan-2-yl]-7-methoxymethoxy-9a,11a-dimethyl-1,2,3,3a,5a,6,7,8,9,9a,11,11a-dodecahydrobenzo[c]cyclopenta[h]chromen-5(10H)-one]",≥ 125%
11,"CC(C)CCC[C@H](C)[C@H]1CC[C@H]2C3=C(CC[C@]12C)[C@@]1(C)CCC(=NO)CC1C(=O)O3 (stereo partly drawn) [Compound 3, (S)-3-Hydroxyimino-7-oxa-8-cholesten-6-one]",≥ 125%

# Same assay, conditions: at 10 nmol/L, relative value, negative control (DMSO) = 100%, wells without cells = 0%, absorbance at 490 nm
row,Compound,activity at 0.01 µM
1,"CC(C)CCC[C@@H](C)[C@H]1CC[C@H]2C3=C(CC[C@]12C)[C@@]1(C)CCNC(=O)C[C@@H]1C(=O)O3 [Compound 34, (1R,3aR,5aS,10aS,12aR)-10a,12a-Dimethyl-1-[(R)-6-methylheptan-2-yl]-1,2,3,3a,5a,6,9,10,10a,11,12,12a-dodecahydro-8-azacyclohepta[c]cyclopenta[h]chromen-5,7-dione]",≥ 125%
2,"CC(CCC[C@H](C)[C@H]1CC[C@H]2C3=C(CC[C@]12C)[C@@]1(C)CC[C@H](O)C[C@@H]1C(=O)O3)C(=O)O (some centres unmarked) [Compound 80, 7-Oxa-3-hydroxy-cholest-8(9)-en-6-on-26-acid]",≥ 125%
3,"CC(C)C(C)CC[C@H](C)[C@H]1CC[C@H]2C3=C(CC[C@]12C)[C@@]1(C)CC[C@H](O)C[C@@H]1C(=O)O3 (stereo in doubt) [Compound 76, 7-Oxa-ergosta-8(9)-en-6-on-3-ol]",≥ 125%
4,"CC(CO)CCC[C@H](C)[C@H]1CCC2=C3OC(=O)[C@H]4C[C@@H](O)CC[C@]4(C)[C@H]3CC[C@@]21C (stereo in doubt) [Compound 90, 7-oxa-cholest-8(14)-en-6-on-3,26-diol]",≥ 125%
5,"CC(C)CCC[C@@H](C)[C@H]1CC[C@@H]2[C@]1(C)CC[C@@]13O[C@@]21OC(=O)[C@H]1CC(=O)CC[C@@]13C [Compound 94, (5S,8S,9S)-7-Oxa-8,9-epoxy-3,6-cholestadione]",≥ 125%
6,"COCO[C@H]1CC[C@]2(C)C3=C(OC(=O)[C@H]2C1)[C@@H]1CC[C@H]([C@H](C)CCCCCCO)[C@@]1(C)CC3 [Compound 74, (1R,3aR,5aS,7S,9aS,11aR)-1-[(R)-8-Hydroxyoctan-2-yl]-7-methoxymethoxy-9a,11a-dimethyl-1,2,3,3a,5a,6,7,8,9,9a,11,11a-dodecahydrobenzo[c]cyclopenta[h]chromen-5(10H)-one]",≥ 125%

# Same assay, conditions: at 100 nmol/L, relative value, negative control (DMSO) = 100%, wells without cells = 0%, absorbance at 490 nm
row,Compound,activity at 0.1 µM
1,"COCO[C@H]1CC[C@]2(C)C3=C(OC(=O)[C@H]2C1)[C@@H]1CC[C@H]([C@H](C)CN2CCOCC2)[C@@]1(C)CC3 [Compound 72, (1R,3aR,5aS,7S,9aS,11aR)-7-Methoxymethoxy-9a,11a-dimethyl-1[(S)-1-morpholinopropan-2-yl]-1,2,3,3a,5a,6,7,8,9,9a,11,11a-dodecahydrobenzo[c]cyclopenta[h]chromen-5(10H)-one]",≥ 125%
2,"CC(C)CCC[C@@H](C)[C@H]1CC[C@H]2[C@H]3OC(=O)[C@H]4CC(=O)CC[C@]4(C)[C@H]3CC[C@]12C [Compound 93, (1R,3aR,3bR,5aS,9aR,9bR,11aR)-9a,11a-Dimethyl-1-[(R)-6-methylheptan-2-yl]dodecahydrobenzo[c]cyclopenta[h]chromen-5,7(3bH,8H)-dione]",≥ 125%
3,"C=CC[C@]12C[C@@H](O)CC[C@]1(C)C1=C(OC2=O)[C@@H]2CC[C@H]([C@H](C)CCCC(C)C)[C@@]2(C)CC1 [Compound 30, (3S,5S)-3-hydroxy-5-allyl-7-oxa-8-cholesten-6-one]",≥ 125%
4,"CC(C)CCC[C@@H](C)[C@H]1CC[C@H]2C3=C(CC[C@]12C)[C@@]1(C)CC[C@H](OCc2ccccc2)C[C@@H]1C(=O)O3 [Compound 47, (3S,5S)-3-Benzyloxy-7-oxa-8-cholesten-6-one]",≥ 125%
5,"CC(C)C(=O)CC[C@H](C)[C@H]1CC[C@H]2C3=C(CC[C@]12C)[C@@]1(C)CC[C@H](O)C[C@@H]1C(=O)O3 (stereo in doubt) [Compound 78, 7-Oxa-cholest-8(9)-en-6,24-dion-3-ol]",≥ 125%
6,"CC(C)CCC[C@@H](C)[C@H]1CC[C@H]2C3=C(CC[C@]12C)[C@]1(C)[C@H](CC=C[C@@H]1O)C(=O)O3 [Compound 21, (1S,5S)-1-Hydroxy-7-oxa-2,8-cholestadien-6-one]",≥ 125%
